Measured values: US20250215029A1 (Recludix Pharma, Inc., priority 2022, published 2025)
pIC50: −log10 of the molar value.

Target: T1, pY641-STAT6 in PBMC (Homo sapiens, UniProt P42226)
T1 construct: Cryopreserved Peripheral Blood Mononuclear Cells (PBMC) are from AllCells; host or cells: cryopreserved PBMC
T1 sequence (P42226 1-847): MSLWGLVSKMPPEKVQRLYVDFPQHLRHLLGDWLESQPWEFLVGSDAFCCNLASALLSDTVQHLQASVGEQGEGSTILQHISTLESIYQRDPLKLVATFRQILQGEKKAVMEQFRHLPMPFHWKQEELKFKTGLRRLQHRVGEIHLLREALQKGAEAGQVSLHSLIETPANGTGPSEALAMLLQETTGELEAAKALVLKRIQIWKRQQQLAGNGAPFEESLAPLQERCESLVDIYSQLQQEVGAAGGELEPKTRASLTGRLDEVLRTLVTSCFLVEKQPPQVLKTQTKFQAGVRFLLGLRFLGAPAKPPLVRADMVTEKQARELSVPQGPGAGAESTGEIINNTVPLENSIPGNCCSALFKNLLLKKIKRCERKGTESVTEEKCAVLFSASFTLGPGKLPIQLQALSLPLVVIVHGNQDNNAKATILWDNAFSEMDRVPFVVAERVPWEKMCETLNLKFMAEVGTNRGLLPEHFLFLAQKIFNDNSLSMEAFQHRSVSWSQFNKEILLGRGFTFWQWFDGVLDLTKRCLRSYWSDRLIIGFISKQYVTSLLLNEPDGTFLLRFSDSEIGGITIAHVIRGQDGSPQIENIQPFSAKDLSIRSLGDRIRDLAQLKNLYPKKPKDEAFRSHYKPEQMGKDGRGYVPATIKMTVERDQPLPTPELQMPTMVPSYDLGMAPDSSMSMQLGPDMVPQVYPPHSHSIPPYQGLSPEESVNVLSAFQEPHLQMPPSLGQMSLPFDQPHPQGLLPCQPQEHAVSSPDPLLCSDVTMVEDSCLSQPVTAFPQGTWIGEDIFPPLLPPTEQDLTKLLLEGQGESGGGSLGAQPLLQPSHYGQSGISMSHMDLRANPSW
Experiment: MSD-pSTAT-PBMC Assay (pSTAT6, IL-4 stimulated)
Assay type: cell-based
Details: PBMC, compound 3 hrs, then 1 ng/mL IL-4 for 10 min; Table 115; read-out: STAT6
How it was run: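 Inhibition of cytokine-induced STAT phosphorylation was measured in recovered human PBMC after 3 hrs compound exposure and a 10 min IL-4 (1 ng/mL) or IL-6 (10 ng/mL) challenge. MSD detection of pY641-STAT6 or pY705-STAT3 yielded IC50 values.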

Q: `CCCOC(=O)[C@H](C)NP(=O)(Oc1ccccc1)[C@@H](F)c1ccc2sc(C(=O)N[C@H]3CCC[C@H]4CC[C@@H](C(=O)N5C[C@H](c6ccc(C)cc6)[C@@H](C#N)C56CC6)N4C3=O)cc2c1` (stereo partly drawn) [Compound 479] was tested. Which pIC50 did it give?
A: > 7.00

Same assay, conditions: STAT6, PBMC, compound 3 hrs, then 1 ng/mL IL-4 for 10 min; Table 115

Q: How did the pIC50 turn out when `CCCOC(=O)[C@H](C)NP(=O)(Oc1ccccc1)C(F)c1ccc2sc(C(=O)N[C@H]3CCCC[C@H]4CC[C@@H](C(=O)N5CCC(O)(c6ccn(C)c(=O)c6)C5)N4C3=O)cc2c1` (stereo partly drawn) [Compound 466, propyl ((fluoro(2-(((3S,6S,10aS)-3-(3-hydroxy-3-(1-methyl-2-oxo-1,2-dihydropyridin-4-yl)pyrrolidine-1-carbonyl)-5-oxodecahydropyrrolo [1,2-a]azocin-6-yl)carbamoyl)benzo [b]thiophen-5-yl)methyl)(phenoxy)phosphoryl)-L-alaninate] was run?
A: < 5.52

Q: How did the pIC50 turn out when `CCCOC(=O)[C@H](C)NP(=O)(Oc1ccccc1)C(F)c1ccc2sc(C(=O)N[C@H]3CCCC[C@H]4CC[C@@H](C(=O)N5C(=O)N(c6cccnc6)CC56CC6)N4C3=O)cc2c1` (stereo partly drawn) [Compound 467, propyl ((fluoro(2-(((3S,6S,10aS)-5-oxo-3-(5-oxo-6-(pyridin-3-yl)-4,6-diazaspiro[2.4]heptane-4-carbonyl)decahydropyrrolo[1,2-a]azocin-6-yl)carbamoyl)benzo [b]thiophen-5-yl)methyl)(phenoxy)phosphoryl)-L-alaninate] was run?
A: < 5.52

Q: `CCCOC(=O)[C@H](C)NP(=O)(Oc1ccccc1)[C@@H](F)c1ccc2sc(C(=O)N[C@H]3CCCC[C@H]4CC[C@@H](C(=O)N5C(=O)N(c6cccnc6)C(=O)C56CC6)N4C3=O)cc2c1` (stereo partly drawn) [Compound 468, propyl (((R)-(2-(((3S,6S,10aS)-3-(5,7-dioxo-6-(pyridin-3-yl)-4,6-diazaspiro[2.4]heptane-4-carbonyl)-5-oxodecahydropyrrolo [1,2-a]azocin-6-yl)carbamoyl)benzo [b]thiophen-5-yl)fluoromethyl) (phenoxy)phosphoryl)-L-alaninate] was tested. Which pIC50 did it give?
A: > 7.00

Q: How did the pIC50 turn out when `CCCOC(=O)[C@H](C)NP(=O)(Oc1ccccc1)[C@@H](F)c1ccc2sc(C(=O)N[C@H]3CCC[C@H]4CC[C@@H](C(=O)N5C(=O)N(c6cccnc6)C(=O)C56CC6)N4C3=O)cc2c1` (stereo partly drawn) [Compound 469, propyl (((R)-(2-(((3S,6S,9aS)-3-(5,7-dioxo-6-(pyridin-3-yl)-4,6-diazaspiro[2.4]heptane-4-carbonyl)-5-oxooctahydro-1H-pyrrolo[1,2-a]azepin-6-yl)carbamoyl)benzo [b]thiophen-5-yl)fluoromethyl) (phenoxy)phosphoryl)-L-alaninate] was run?
A: 6.00 to 7.00

Q: `CCCOC(=O)[C@H](C)NP(=O)(Oc1ccccc1)[C@@H](F)c1ccc2sc(C(=O)N[C@H]3CC[C@@H](C)C[C@H]4CC[C@@H](C(=O)N5C[C@@H](c6cccnc6)CC56CC6)N4C3=O)cc2c1` (stereo partly drawn) [Compound 470, propyl (((R)-fluoro(2-(((3S,6S,9R,10aR)-9-methyl-5-oxo-3-((R)-6-(pyridin-3-yl)-4-azaspiro[2.4]heptane-4-carbonyl)decahydropyrrolo[1,2-a]azocin-6-yl)carbamoyl)benzo [b]thiophen-5-yl)methyl)(phenoxy)phosphoryl)-L-alaninate] was tested. Which pIC50 did it give?
A: > 7.00

Q: How did the pIC50 turn out when `CCC(CC)COC(=O)[C@H](C)NP(=O)(Oc1ccccc1)[C@@H](F)c1ccc2sc(C(=O)N[C@H]3CCCC[C@H]4CC[C@@H](C(=O)N5C[C@@H](c6cccnc6)CC56CC6)N4C3=O)cc2c1` (stereo partly drawn) [Compound 471, 2-ethylbutyl (((R)-fluoro(2-(((3S,6S,10aS)-5-oxo-3-((R)-6-(pyridin-3-yl)-4-azaspiro[2.4]heptane-4-carbonyl)decahydropyrrolo[1,2-a]azocin-6-yl)carbamoyl)benzo [b]thiophen-5-yl)methyl)(phenoxy)phosphoryl)-L-alaninate] was run?
A: > 7.00

Q: With `C[C@H](NP(=O)(Oc1ccccc1)[C@@H](F)c1ccc2sc(C(=O)N[C@H]3CCCC[C@H]4CC[C@@H](C(=O)N5C[C@@H](c6cccnc6)CC56CC6)N4C3=O)cc2c1)C(=O)OCc1ccccc1` (stereo partly drawn) [Compound 472, benzyl (((R)-fluoro(2-(((3S,6S,10aS)-5-oxo-3-((R)-6-(pyridin-3-yl)-4-azaspiro[2.4]heptane-4-carbonyl)decahydropyrrolo[1,2-a]azocin-6-yl)carbamoyl)benzo [b]thiophen-5-yl)methyl)(phenoxy)phosphoryl)-L-alaninate] as the molecule, how does the pIC50 read?
A: > 7.00

Q: How did the pIC50 turn out when `CCCOC(=O)[C@H](C)NP(=O)(Oc1ccccc1)C(F)c1ccc2sc(C(=O)N[C@H]3CCCC[C@H]4CC[C@@H](C(=O)N5C(=O)N(c6cncc(F)c6)C(=O)C56CC6)N4C3=O)cc2c1` (stereo partly drawn) [Compound 473, propyl ((fluoro(2-(((3S,6S,10aS)-3-(6-(5-fluoropyridin-3-yl)-5,7-dioxo-4,6-diazaspiro[2.4]heptane-4-carbonyl)-5-oxodecahydropyrrolo [1,2-a]azocin-6-yl)carbamoyl)benzo [b]thiophen-5-yl)methyl)(phenoxy)phosphoryl)-L-alaninate] was run?
A: < 5.52

Q: `CC(C)OC(=O)[C@H](C)NP(=O)(Oc1ccccc1)[C@@H](F)c1ccc2sc(C(=O)N[C@H]3CCCC[C@H]4CC[C@@H](C(=O)N5C[C@@H](c6cccnc6)CC56CC6)N4C3=O)cc2c1` (stereo partly drawn) [Compound 474, isopropyl (((R)-fluoro(2-(((3S,6S,10aS)-5-oxo-3-((R)-6-(pyridin-3-yl)-4-azaspiro[2.4]heptane-4-carbonyl)decahydropyrrolo[1,2-a]azocin-6-yl)carbamoyl)benzo [b]thiophen-5-yl)methyl)(phenoxy)phosphoryl)-L-alaninate] was tested. Which pIC50 did it give?
A: > 7.00

Q: With `CC(C)OC(=O)[C@H](C)NP(=O)(Cc1ccc2sc(C(=O)N[C@H]3CCCC[C@H]4CC[C@@H](C(=O)N5C[C@@H](c6cccnc6)CC56CC6)N4C3=O)cc2c1)Oc1ccccc1` (stereo partly drawn) [Compound 475, isopropyl (((2-(((3S,6S,10aS)-5-oxo-3-((R)-6-(pyridin-3-yl)-4-azaspiro[2.4]heptane-4-carbonyl)decahydropyrrolo[1,2-a]azocin-6-yl)carbamoyl)benzo [b]thiophen-5-yl)methyl)(phenoxy)phosphoryl)-L-alaninate] as the molecule, how does the pIC50 read?
A: 6.00 to 7.00

Q: How did the pIC50 turn out when `CCCOC(=O)[C@H](C)NP(=O)(Cc1ccc2sc(C(=O)N[C@H]3CCCC[C@H]4CC[C@@H](C(=O)N5C[C@@H](c6cccnc6)CC56CC6)N4C3=O)cc2c1)Oc1ccccc1` (stereo partly drawn) [Compound 476, propyl (((2-(((3S,6S,10aS)-5-oxo-3-((R)-6-(pyridin-3-yl)-4-azaspiro[2.4]heptane-4-carbonyl)decahydropyrrolo[1,2-a]azocin-6-yl)carbamoyl)benzo [b]thiophen-5-yl)methyl)(phenoxy)phosphoryl)-L-alaninate] was run?
A: > 7.00

Q: `C[C@H](NP(=O)(Oc1ccccc1)[C@@H](F)c1ccc2sc(C(=O)N[C@H]3CCCC[C@H]4CC[C@@H](C(=O)N5C[C@@H](c6cccnc6)CC56CC6)N4C3=O)cc2c1)C(=O)OCC(C)(C)C` (stereo partly drawn) [Compound 477, neopentyl (((R)-fluoro(2-(((3S,6S,10aS)-5-oxo-3-((R)-6-(pyridin-3-yl)-4-azaspiro[2.4]heptane-4-carbonyl)decahydropyrrolo[1,2-a]azocin-6-yl)carbamoyl)benzo [b]thiophen-5-yl)methyl)(phenoxy)phosphoryl)-L-alaninate] was tested. Which pIC50 did it give?
A: > 7.00

Q: With `COCCOC(=O)[C@H](C)NP(=O)(Oc1ccccc1)[C@@H](F)c1ccc2sc(C(=O)N[C@H]3CCC[C@H]4CC[C@@H](C(=O)N5C[C@@H](c6cccnc6)CC56CC6)N4C3=O)cc2c1` (stereo partly drawn) [Compound 480, 2-methoxyethyl (((R)-fluoro(2-(((3S,6S,9aS)-5-oxo-3-((R)-6-(pyridin-3-yl)-4-azaspiro[2.4]heptane-4-carbonyl)octahydro-1H-pyrrolo[1,2-a]azepin-6-yl)carbamoyl)benzo [b]thiophen-5-yl)methyl)(phenoxy)phosphoryl)-L-alaninate] as the molecule, how does the pIC50 read?
A: > 7.00

Q: `CCCOC(=O)[C@H](C)NP(=O)(Oc1c(C)cccc1C)[C@@H](F)c1ccc2sc(C(=O)N[C@H]3CCC[C@H]4CC[C@@H](C(=O)N5C[C@@H](c6cccnc6)CC56CC6)N4C3=O)cc2c1` (stereo partly drawn) [Compound 481, propyl ((2,6-dimethylphenoxy) ((R)-fluoro(2-(((3S,6S,9aS)-5-oxo-3-((R)-6-(pyridin-3-yl)-4-azaspiro[2.4]heptane-4-carbonyl)octahydro-1H-pyrrolo[1,2-a]azepin-6-yl)carbamoyl)benzo [b]thiophen-5-yl)methyl)phosphoryl)-L-alaninate] was tested. Which pIC50 did it give?
A: > 7.00
